Some test systems named below: COLO 205 colon; CAKI-1 renal; HOP-62 NSCLC; OVCAR-5 ovarian; MOLT-4 leukemia; A549 NSCLC; K-562 leukemia; SF-295 CNS; HOP-92 NSCLC; MALME-3M melanoma.
Holding throughout (assay): NCI tumour cell line growth inhibition, 48 h

Structures are written as SMILES.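 Grown in 96-well plates, cells were treated for 48 hours with each compound at five concentrations. Insufficient inhibition: endpoint recorded as highest concentration tested. Abbreviation: GI50, concentration required for 50% inhibition of growth. TGI is the concentration that stops growth completely.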

TGI and GI50 data for ten compounds are collected here from PubChem BioAssay (NCI).

In the case of `CN(C)CC1CCCC/C1=N\OC(=O)c1ccccc1` (stereo not given), the TGI in the assay on COLO 205 colon, with CAKI-1 renal, in the assay on HOP-62 NSCLC, with OVCAR-5 ovarian, in the assay on MOLT-4 leukemia and in the assay on A549 NSCLC was above 100 µM each time. Moreover, the TGI in the assay with K-562 leukemia, with SF-295 CNS, in the assay on HOP-92 NSCLC and with MALME-3M melanoma was above 100 µM each time.
Consider `CC[C@]1(O)CC2CN(CCc3c([nH]c4ccccc34)C(C(=O)OC)(c3cc4c(cc3OC)N(C=O)[C@H]3[C@@](O)(C(=O)OC)[C@H](OC(C)=O)[C@]5(CC)[C@@H]6C[C@@H]6CN6CC[C@]43[C@@H]65)C2)C1` (stereo not given in full), for which the GI50 was below 0.00325 µM in the assay with COLO 205 colon; 0.0324 µM with CAKI-1 renal; below 0.00325 µM in the assay on HOP-62 NSCLC; below 0.00325 µM with OVCAR-5 ovarian; below 0.00325 µM in the assay on MOLT-4 leukemia; below 0.00325 µM with A549 NSCLC. Further, the GI50 was below 0.00325 µM with K-562 leukemia, below 0.00325 µM in the assay on SF-295 CNS, below 0.00325 µM in the assay with HOP-92 NSCLC and 0.104 µM in the assay with MALME-3M melanoma. The TGI is below 0.00325 µM in the assay on COLO 205 colon; 12.2 µM in the assay on CAKI-1 renal; above 13.7 µM with HOP-62 NSCLC; above 32.5 µM with OVCAR-5 ovarian; 0.339 µM with MOLT-4 leukemia; above 30.7 µM with A549 NSCLC. Besides, the TGI in the assay with K-562 leukemia worked out at 4.84 µM; with SF-295 CNS, 0.325 µM; with HOP-92 NSCLC, 0.0121 µM; with MALME-3M melanoma it was 17.9 µM.
As for `COC(=O)COc1ccccc1/C=C1/N=C(c2ccccc2)N(c2c(C)n(C)n(-c3ccccc3)c2=O)C1=O`, the GI50 in the assay with COLO 205 colon, in the assay with CAKI-1 renal, in the assay on HOP-62 NSCLC, in the assay on OVCAR-5 ovarian, in the assay on MOLT-4 leukemia and in the assay with A549 NSCLC was above 100 µM each time. Besides, the GI50 in the assay with K-562 leukemia was 75.1 µM; in the assay with SF-295 CNS it was above 100 µM; in the assay on HOP-92 NSCLC it was above 100 µM; with MALME-3M melanoma it was above 100 µM. Moreover, the TGI in the assay on COLO 205 colon, with CAKI-1 renal, in the assay on HOP-62 NSCLC, with OVCAR-5 ovarian, in the assay with MOLT-4 leukemia and in the assay with A549 NSCLC was above 100 µM in each case. The TGI in the assay with K-562 leukemia, with SF-295 CNS, in the assay on HOP-92 NSCLC and in the assay with MALME-3M melanoma was above 100 µM each time.
Turning to `COC(=O)NC1=Nc2ccccc2C(=O)NN1`, the TGI with COLO 205 colon, in the assay with CAKI-1 renal, in the assay on HOP-62 NSCLC, in the assay with OVCAR-5 ovarian, with MOLT-4 leukemia and with A549 NSCLC was above 100 µM throughout. The TGI with K-562 leukemia, in the assay with SF-295 CNS, with HOP-92 NSCLC and with MALME-3M melanoma was above 100 µM in each case.
For the compound `CCc1nc(N)nc(N)c1-c1ccc(N2CCNCC2)c([N+](=O)[O-])c1`, the TGI was 40.5 µM in the assay on COLO 205 colon; above 100 µM with CAKI-1 renal; above 91.8 µM in the assay with HOP-62 NSCLC; above 100 µM in the assay on OVCAR-5 ovarian; above 100 µM in the assay on MOLT-4 leukemia; above 100 µM with A549 NSCLC. Besides, the TGI is above 90.2 µM in the assay on K-562 leukemia, above 100 µM in the assay with SF-295 CNS, above 100 µM with HOP-92 NSCLC and 37.3 µM in the assay with MALME-3M melanoma.
Consider `O=C(CCl)N1CCN(c2ccccc2)CC1`, for which the TGI in the assay with COLO 205 colon is 40 µM; in the assay with CAKI-1 renal, 29.9 µM; in the assay with HOP-62 NSCLC, 36.3 µM; in the assay with OVCAR-5 ovarian, 34.9 µM; in the assay on MOLT-4 leukemia, above 100 µM; with A549 NSCLC, 43.3 µM. The TGI with K-562 leukemia was above 100 µM; in the assay on SF-295 CNS, 36.2 µM; in the assay with HOP-92 NSCLC, 36.2 µM; in the assay with MALME-3M melanoma, 42.8 µM.
For `CCOC(=O)C1(C)C2=CC=C(O2)C(C)(C)C2=CC=C(O2)C(C)(C)C2=CC=C(O2)C(C)(C)C2=CC=C1O2`, the TGI with COLO 205 colon, in the assay with CAKI-1 renal, in the assay with HOP-62 NSCLC, in the assay with OVCAR-5 ovarian, in the assay on MOLT-4 leukemia and in the assay on A549 NSCLC was above 100 µM throughout. The TGI in the assay with K-562 leukemia, with SF-295 CNS, in the assay with HOP-92 NSCLC and in the assay on MALME-3M melanoma was above 100 µM throughout.
With `C=C(CC)C(=O)c1ccc(OCC(=O)O)c(Cl)c1Cl`, the TGI is 33.1 µM in the assay with COLO 205 colon; 28.1 µM with CAKI-1 renal; above 56 µM with HOP-62 NSCLC; above 62.6 µM in the assay with OVCAR-5 ovarian; above 62.2 µM with MOLT-4 leukemia; above 100 µM in the assay on A549 NSCLC. In addition, the TGI was above 100 µM with K-562 leukemia, above 100 µM in the assay with SF-295 CNS, 25.2 µM with HOP-92 NSCLC and 31.7 µM with MALME-3M melanoma.
On to `CCOC(=O)C(Cc1ccccc1)n1c(O)c(/C=N/c2ncc(Cc3ccc(Cl)cc3Cl)s2)sc1=S` (stereo not given), for which the GI50 is 1.66 µM with COLO 205 colon; 1.71 µM with CAKI-1 renal; 2.69 µM with HOP-62 NSCLC; 4.2 µM with OVCAR-5 ovarian; 3.29 µM in the assay on MOLT-4 leukemia; 3.68 µM with A549 NSCLC. Further, the GI50 in the assay on K-562 leukemia is 2.03 µM; in the assay on SF-295 CNS, 2.31 µM; in the assay on HOP-92 NSCLC, 1.65 µM; in the assay on MALME-3M melanoma it was 2.77 µM. Moreover, the TGI is 3.34 µM in the assay with COLO 205 colon; above 100 µM in the assay with CAKI-1 renal; 8.12 µM in the assay with HOP-62 NSCLC; above 100 µM in the assay with OVCAR-5 ovarian; above 100 µM with MOLT-4 leukemia; above 100 µM in the assay with A549 NSCLC. In addition, the TGI in the assay on K-562 leukemia is above 100 µM; in the assay with SF-295 CNS it was 6.84 µM; in the assay on HOP-92 NSCLC, 6.22 µM; in the assay on MALME-3M melanoma it was 9.25 µM.
For the compound `C/C=C(/C)C(=O)OC1C=C(CO)C(=O)C(OC(=O)C2(C)OC2C)C1C(C)C` (stereo not given), the GI50 is 1.85 µM with COLO 205 colon; 1.81 µM in the assay with CAKI-1 renal; 1.96 µM in the assay on HOP-62 NSCLC; 1.93 µM in the assay with OVCAR-5 ovarian; 1.96 µM in the assay on MOLT-4 leukemia; 2.6 µM in the assay with A549 NSCLC. Further, the GI50 in the assay on K-562 leukemia is 1.33 µM; in the assay on SF-295 CNS, 2.62 µM; with HOP-92 NSCLC, 1.65 µM; with MALME-3M melanoma, 1.74 µM. The TGI in the assay with COLO 205 colon was determined as 3.43 µM; in the assay on CAKI-1 renal, 3.2 µM; in the assay with HOP-62 NSCLC, 4.3 µM; with OVCAR-5 ovarian, 3.74 µM; in the assay with MOLT-4 leukemia, 6.5 µM; with A549 NSCLC it was 7.7 µM. Also, the TGI with K-562 leukemia came to 10.8 µM; in the assay on SF-295 CNS, 8.16 µM; in the assay with HOP-92 NSCLC, 3.33 µM; in the assay with MALME-3M melanoma, 3.53 µM.
